Laboratory results taken from patent publication US5436260A, “Angiotensin II receptor antagonists” (Warner-Lambert Company, priority 1994, dated 1995).
pIC50: −log10 of the molar value. Structures can show the parent of a compound that is named as a salt.

Target: T1, AT1 receptor (Rattus norvegicus, UniProt P25095)
T1 construct: rat liver membranes; from tissue; host or cells: rat liver membranes
T1 sequence (P25095 1-359): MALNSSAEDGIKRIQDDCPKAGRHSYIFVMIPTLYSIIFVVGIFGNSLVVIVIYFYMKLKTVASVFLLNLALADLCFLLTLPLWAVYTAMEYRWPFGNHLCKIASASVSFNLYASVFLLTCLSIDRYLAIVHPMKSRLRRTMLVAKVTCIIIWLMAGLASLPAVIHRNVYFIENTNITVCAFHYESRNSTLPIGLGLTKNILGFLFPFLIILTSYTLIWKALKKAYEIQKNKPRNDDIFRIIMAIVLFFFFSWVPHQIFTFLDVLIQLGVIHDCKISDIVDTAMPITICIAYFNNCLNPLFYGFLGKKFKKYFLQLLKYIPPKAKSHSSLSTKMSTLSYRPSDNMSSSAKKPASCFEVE
Experiment: [^3 H]angiotensin II binding to rat liver membranes (AT1 test)
Conditions: inhibition of [^3 H]angiotensin II binding
Method: The compounds of Formula I or Ia are antagonists of angiotensin II. Dudley, D. T., et al, Molecular Pharmacology 1990;38:370-377 reported the existence of 2 subclasses of angiotensin II binding sites in rabbit adrenal gland and uterus and in the rat liver which differ in their tissue distribution and affinity for various peptide and nonpeptide ligands. Thus, the compounds of Formula I or Ia were tested for their ability to inhibit [^3 H]angiotensin II binding to rat liver membranes (AT1 test) according to the methods described by Dudley, D. T., et al, Molecular Pharmacology 1990;38:370-7. […] It is well established that compounds which antagonize the effect of angiotensin II at the AT1 receptor have value for treatment of hypertension and heart failure.

`CCCCc1ncc(/C=C2/C(=O)NC(=O)N2Cc2cccs2)n1Cc1ccc(C(=O)OC)cc1` [Example 63] and `CCCCc1ncc(/C=C2\C(=O)NC(=O)N2Cc2cccs2)n1Cc1ccc(C(=O)OC)cc1` [Example 16a, (e)-4-[]2-Butyl-5-[[2,5-dioxo-3-((2-thienyl)methyl)-4-imidazolidinylidene[methyl]-1H-imidazole-1-yl]methyl]benzoic acid, methyl ester] are within 0.2 log units of each other in pIC50: 8.29 for the first, 8.26 for the second.

Compared with `CCCCc1ncc(/C=C2/C(=O)NC(=O)N2CCCC)n1Cc1ccc(-c2nn[nH]n2)cc1` [Example 76a, Z-1-Butyl-5-[[2-butyl-3-[[4-(1H-tetrazol-5-yl)phenyl]methyl]-3H-imidazol-4-yl]methylene]-2,4-imidazolidinedione], `CCCCc1ncc(/C=C2\C(=O)NC(=O)N2CCCCO)n1Cc1ccc(C(=O)OC)cc1` [Example 17a] is 1.46 log units lower in pIC50: 8.47 for the first, 7.01 for the second. The first is the more potent here.

Going from `CCCCc1ncc(/C=C2/C(=O)N(CCCC)C(=O)N2CC(=O)c2ccccc2)n1Cc1ccc(C(=O)OC)cc1` [Example 104, Methyl Z-4-[[2-butyl-5-[[1-butyl-2,5-dioxo-3-(2-oxo-2-phenylethyl)-4-imidazolidinylidene]methyl]-1H-imidazol-1-yl]methyl]benzoate monohydrochloride] to `CCCCc1ncc(/C=C2/C(=O)N(CCCC)C(=O)N2Cc2ccccc2Cl)n1Cc1ccc(C(=O)OC)cc1` [Example 61, Methyl Z-4-[[2-butyl-5-[[1-butyl-3-[(2-chlorophenyl)methyl]-2,5-dioxo-4-imidazolidinylidene]methyl]-1H-imidazol-1-yl-]methyl]benzoate monohydrochloride], the pIC50 rises from less than 6.00 to 7.22.

First: CCCCc1ncc(/C=C2/C(=O)N(CCCC)C(=O)N2Cc2cc(C)on2)n1Cc1ccc(C(=O)OC)cc1 [Example 108, Methyl Z-4-[[2-butyl-5-[[1-butyl-3-[(5-methyl-3-isoxazolyl)methyl]-2,5-dioxo-4-imidazolidinylidene]methyl]-1H-imidazol-1-yl]methyl]benzoate]
Second: CCCCc1ncc(/C=C2/C(=O)N(CCCC)C(=O)N2Cc2csc(N)n2)n1Cc1ccc(C(=O)OC)cc1 [Example 62, Methyl Z-4-[[2-butyl-5-[[1-butyl-3-[(2-amino-4-thiazolyl)methyl]-2,5-dioxo-4-imidazolidinylidene]methyl]-1H-imidazol-1-yl]methyl]benzoate dihydrochloride]
The pIC50 of the first is 0.85 log units lower: 8.07 for the first, 8.92 for the second.

Compared with `CCCCc1ncc(/C=C2\C(=O)NC(=O)N2C)n1Cc1ccc(C(=O)O)cc1` [Example 3a, (E)-4-[[2-Butyl-5-[(2,5-dioxo-3-methyl-4-imidazolidinylidene)methyl]-1H-imidazol-1-yl]methyl]benzoic acid], `CCCCN1C(=O)N(C)C(=O)/C1=C\c1cnc(CCC)n1Cc1ccc(C(=O)OC)cc1` [Example 18] is 0.92 log units higher in pIC50: 6.76 for the first, 7.68 for the second. The second is the more potent here.

Compared with `CCCCc1nc(Br)c(/C=C2\C(=O)NC(=O)N2CCCC)n1Cc1ccc(-c2ccccc2C(=O)OC)cc1` [Example 97b, Methyl E-4'-[[4-bromo-2-butyl-5-[(3-butyl-2,5-dioxo-4-imidazolidinylidene)methyl]-1H-imidazol-1-yl]methyl][1,1'-biphenyl]-2-carboxylate], `CCCCc1ncc(/C=C2/C(=O)N(COC)C(=O)N2CCCC)n1Cc1ccc(C(=O)OC)cc1` [Example 54, Methyl Z-4-[[2-butyl-5-[[3-butyl-1-(methoxymethyl)-2,5-dioxo-4-imidazolidinylidene]methyl]-1H-imidazol-1-yl]methyl]benzoate monohydrochloride] is 1.23 log units higher in pIC50: 6.30 for the first, 7.53 for the second.

Work on `CCCCCCN1C(=O)/C(=C/c2cnc(CCCC)n2Cc2ccc(C(=O)OC)cc2)N(Cc2ccsc2)C1=O` [Example 49, Methyl Z-4-[[2-butyl-5-[[1-hexyl-2,5-dioxo-3-(3-thienylmethyl)-4-imidazolidinylidene]methyl]-1H-imidazol-1-yl]methyl]benzoate monohydrochloride] yielded a pIC50 of 8.02.
